# Laboratory results: ChEMBL document CHEMBL5143740, “Discovery of Novel Phosphoinositide-3-Kinase α Inhibitors with High Selectivity, Excellent Bioavailability, and Long-Acting Efficacy for Gastric Cancer” (J Med Chem, 2022)
# Active and inactive are the calls of the source. The calls are words filed in the database; no cut-off is given here.
# Key:
# MCF7 = test: Antiproliferative activity against human MCF7 cells assessed as inhibition of cell growth incubated for 72 hrs by CCK8 assay; assay type: functional, cell-based; details: MCF7, 72 h
# Homo sapiens = organism: Homo sapiens; test: Selectivity index, ratio of IC50 for inhibition of PI3Kgamma (unknown origin) to IC50 for inhibition of PI3Kalpha (unknown origin)
# MGC-803 [1] = test: Antitumor activity against human MGC-803 cells xenografted in BALB/c nude mouse assessed as reduction in tumor volume at 30 mg/kg, po administered every day for 3 weeks in presence of taxol by vernier caliper method; assay type: functional, organism-based
# [2] = Oral bioavailability in Sprague-Dawley rat at 10 mg/kg measured after 24 hrs; assay type: ADME, organism-based; details: in vivo
# RPMI-8226 = test: Antiproliferative activity against human RPMI-8226 cells assessed as inhibition of cell growth incubated for 72 hrs by CCK8 assay; assay type: functional, cell-based; details: RPMI-8226, 72 h
# [3] = Cmax in Sprague-Dawley rat at 10 mg/kg, po measured after 24 hrs; assay type: ADME, organism-based; set-up: time 24 hrs, dose 10 mg/kg, route po; details: in vivo
# [4] = molecular target: Phosphatidylinositol 4,5-bisphosphate 3-kinase catalytic subunit gamma isoform (Homo sapiens, UniProt P48736)
# MGC-803 [5] = test: Inhibition of cell invasion in human MGC-803 cells at 2 to 8 uM incubated for 24 hrs by microscopic analysis; assay type: functional, cell-based; details: dose 2-8 µM
# MDA-MB-231 = test: Antiproliferative activity against human MDA-MB-231 cells assessed as inhibition of cell growth incubated for 72 hrs by CCK8 assay; assay type: functional, cell-based; details: MDA-MB-231, 72 h
# MGC-803 [6] = test: Antitumor activity against human MGC-803 cells xenografted in BALB/c nude mouse assessed as tumor growth inhibition at 30 mg/kg, po administered every day for 3 weeks in presence of taxol; assay type: functional; details: MGC-803, 504 h, read-out: TGI
# [7] = AUC (0 to infinitive) in Sprague-Dawley rat at 10 mg/kg, po measured after 24 hrs; assay type: ADME, organism-based; set-up: dose 10 mg/kg, time 24 hrs, route po; details: in vivo
# MGC-803 [8] = test: Inhibition of cell migration in human MGC-803 cells at 2 to 8 uM incubated for 24 hrs by crystal violet staining based transwell migration assay; assay type: functional; details: dose 2-8 µM
# MGC-803 [9] = test: Induction of apoptosis in human MGC-803 cells assessed as necrotic cells at 8 uM incubated for 36 hrs by annexin V-FITC based flow cytometry analysis (reference value: […]); assay type: functional
# MGC-803 [10] = test: Induction of apoptosis in human MGC-803 cells assessed as late apoptotic cells at 8 uM incubated for 36 hrs by annexin V-FITC based flow cytometry analysis (reference value: 2.61 %); assay type: functional
# HepG2 = test: Antiproliferative activity against human HepG2 cells assessed as inhibition of cell growth incubated for 72 hrs by CCK8 assay; assay type: functional, cell-based; details: HepG2, 72 h
# MGC-803 [11] = test: Inhibition of PI3K signalling pathway in human MGC-803 cells assessed as reduction in pAKT level at 2 to 8 uM by Western blotting analysis; assay type: cell-based; details: dose 2-8 µM
# [12] = Tmax in Sprague-Dawley rat at 10 mg/kg, po measured after 24 hrs; assay type: ADME, organism-based; details: in vivo
# [13] = Half life in Sprague-Dawley rat at 1 mg/kg, iv measured after 24 hrs; assay type: ADME, organism-based; details: in vivo
# [14] = molecular target: T1, Phosphatidylinositol 4,5-bisphosphate 3-kinase catalytic subunit delta isoform (Homo sapiens, UniProt O00329); test: Inhibition of PI3Kdelta (unknown origin) in presence of [33P]-ATP incubated for 2 hrs by hotspot kinase assay
# T1 sequence (O00329 whole entry): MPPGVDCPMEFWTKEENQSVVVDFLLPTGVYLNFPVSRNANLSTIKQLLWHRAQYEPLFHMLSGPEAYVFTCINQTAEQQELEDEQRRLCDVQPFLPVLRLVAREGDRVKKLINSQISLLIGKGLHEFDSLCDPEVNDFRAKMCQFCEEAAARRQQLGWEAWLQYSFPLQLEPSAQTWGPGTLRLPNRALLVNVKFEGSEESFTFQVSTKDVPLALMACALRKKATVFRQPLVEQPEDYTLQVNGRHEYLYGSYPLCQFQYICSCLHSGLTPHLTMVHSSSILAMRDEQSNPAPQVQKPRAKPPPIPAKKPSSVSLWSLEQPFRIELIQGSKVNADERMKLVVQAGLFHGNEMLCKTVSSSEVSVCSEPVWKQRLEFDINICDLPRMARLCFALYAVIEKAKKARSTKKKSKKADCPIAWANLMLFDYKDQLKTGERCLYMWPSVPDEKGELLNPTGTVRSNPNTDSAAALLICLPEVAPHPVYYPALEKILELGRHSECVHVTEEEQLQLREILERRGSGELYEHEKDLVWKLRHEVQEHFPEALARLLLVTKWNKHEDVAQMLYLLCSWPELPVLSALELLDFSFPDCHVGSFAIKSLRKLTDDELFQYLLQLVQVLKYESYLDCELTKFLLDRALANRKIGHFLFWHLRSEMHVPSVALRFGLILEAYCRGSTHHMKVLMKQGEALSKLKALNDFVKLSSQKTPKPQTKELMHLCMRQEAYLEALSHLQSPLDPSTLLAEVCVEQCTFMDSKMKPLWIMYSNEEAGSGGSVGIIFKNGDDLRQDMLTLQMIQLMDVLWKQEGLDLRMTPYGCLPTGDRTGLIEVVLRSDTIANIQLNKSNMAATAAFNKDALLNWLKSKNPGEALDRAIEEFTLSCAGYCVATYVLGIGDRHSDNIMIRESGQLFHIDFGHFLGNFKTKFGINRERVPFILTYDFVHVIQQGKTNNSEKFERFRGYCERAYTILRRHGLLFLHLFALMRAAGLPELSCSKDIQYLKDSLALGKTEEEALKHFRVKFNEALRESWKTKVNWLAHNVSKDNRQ
# U-251 = test: Antiproliferative activity against human U-251 cells assessed as inhibition of cell growth incubated for 72 hrs by CCK8 assay; assay type: functional, cell-based; details: U-251, 72 h
# MGC-803 [15] = test: Antitumor activity against human MGC-803 cells xenografted in BALB/c nude mouse assessed as reduction in tumor volume at 30 mg/kg, po administered every day for 3 weeks by vernier caliper method; assay type: functional, organism-based
# MGC-803 [16] = test: Induction of apoptosis in human MGC-803 cells assessed as viable cells at 4 uM incubated for 36 hrs by annexin V-FITC based flow cytometry analysis (reference value: 94.51 %); assay type: functional; details: read-out: Activity
# MGC-803 [17] = test: Induction of apoptosis in human MGC-803 cells assessed as late apoptotic cells at 2 uM incubated for 36 hrs by annexin V-FITC based flow cytometry analysis (reference value: 2.61 %); assay type: functional
# K562 = test: Antiproliferative activity against human K562 cells assessed as inhibition of cell growth incubated for 72 hrs by CCK8 assay; assay type: functional, cell-based; details: K562, 72 h
# MGC-803 [18] = test: Induction of apoptosis in human MGC-803 cells assessed as necrotic cells at 4 uM incubated for 36 hrs by annexin V-FITC based flow cytometry analysis (reference value: […]); assay type: functional
# Sequence of Phosphatidylinositol 4,5-bisphosphate 3-kinase catalytic subunit gamma isoform (P48736 whole entry, canonical isoform): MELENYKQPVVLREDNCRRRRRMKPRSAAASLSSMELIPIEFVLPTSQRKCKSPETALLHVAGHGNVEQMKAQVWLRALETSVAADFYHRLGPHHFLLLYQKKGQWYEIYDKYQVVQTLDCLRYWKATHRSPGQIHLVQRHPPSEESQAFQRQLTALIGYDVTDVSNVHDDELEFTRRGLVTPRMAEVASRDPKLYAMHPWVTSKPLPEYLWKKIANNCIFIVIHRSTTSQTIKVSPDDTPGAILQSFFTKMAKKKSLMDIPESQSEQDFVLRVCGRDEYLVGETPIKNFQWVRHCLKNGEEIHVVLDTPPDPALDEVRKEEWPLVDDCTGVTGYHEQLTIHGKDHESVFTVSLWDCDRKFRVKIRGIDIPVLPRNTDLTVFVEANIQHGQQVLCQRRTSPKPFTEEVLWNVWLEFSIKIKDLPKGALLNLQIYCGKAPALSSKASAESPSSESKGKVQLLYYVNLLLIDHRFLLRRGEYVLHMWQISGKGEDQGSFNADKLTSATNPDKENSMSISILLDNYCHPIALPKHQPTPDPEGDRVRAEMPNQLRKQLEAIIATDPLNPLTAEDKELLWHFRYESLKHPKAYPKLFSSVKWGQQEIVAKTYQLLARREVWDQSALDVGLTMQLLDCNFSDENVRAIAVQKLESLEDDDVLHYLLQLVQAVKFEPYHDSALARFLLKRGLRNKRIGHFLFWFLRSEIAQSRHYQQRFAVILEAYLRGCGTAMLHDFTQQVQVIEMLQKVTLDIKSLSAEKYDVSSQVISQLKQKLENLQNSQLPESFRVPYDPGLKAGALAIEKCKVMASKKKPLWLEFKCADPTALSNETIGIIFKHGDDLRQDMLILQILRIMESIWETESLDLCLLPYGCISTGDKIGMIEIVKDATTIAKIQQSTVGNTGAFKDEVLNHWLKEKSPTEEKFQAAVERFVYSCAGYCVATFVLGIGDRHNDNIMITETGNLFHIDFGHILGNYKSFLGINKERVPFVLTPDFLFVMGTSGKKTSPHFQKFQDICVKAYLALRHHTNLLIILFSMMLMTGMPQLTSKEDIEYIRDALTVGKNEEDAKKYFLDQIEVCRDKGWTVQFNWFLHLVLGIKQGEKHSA
structure (smiles),measurement,setting,value
Nc1nc2cc(-c3nc(N4CCOCC4)nc(N4CCOCC4)n3)ccc2o1,IC50,MCF7,430 nM
same,Ratio IC50,Homo sapiens,29
same,Activity,MGC-803 [1],Active
same,bioavailability,[2],130%
same,IC50,RPMI-8226,430 nM
same,Cmax,[3],2260 ng/mL
same,IC50,[4],128 nM
same,inhibition,MGC-803 [5],Active
same,IC50,MDA-MB-231,430 nM
same,inhibition in vivo at 30 mg/kg,MGC-803 [6],63.9%
same,AUC(0-inf),[7],38100 ng·h/mL
same,inhibition,MGC-803 [8],Active
same,Activity,MGC-803 [9],1.08%
same,Activity,MGC-803 [10],3.81%
same,IC50,HepG2,430 nM
same,inhibition,MGC-803 [11],Active
same,Tmax,[12],9.33 h
same,half-life,[13],6.29 h
same,IC50,[14],153 nM
same,IC50,U-251,430 nM
same,Activity,MGC-803 [15],Active
same,viability at 4 µM,MGC-803 [16],62.6%
same,Activity,MGC-803 [17],4.55%
same,IC50,K562,430 nM
same,Activity,MGC-803 [18],1.11%
